Test results published in US7423175B2, “Hydroxy-tetrahydro-naphthalenylurea derivatives” (Bayer Healthcare AG, priority 2003, dated 2008).

Tests used:
human VR1 = target: T1, human VR1 (Homo sapiens, UniProt Q8NER1); assay: Capsaicin-induced Ca2+ influx in the human VR1-transfected CHO cell line (Assay 1); format: cell-based; conditions: human VR1-CHOluc9aeq cells, stimulation with 10 nM capsaicin; read-out: activity class (IC50)
T1 construct: expressed in transfected cells; host or cells: CHOluc9aeq (CHO cells with aequorin and CRE-luciferase reporter genes)
T1 sequence (Q8NER1 whole entry): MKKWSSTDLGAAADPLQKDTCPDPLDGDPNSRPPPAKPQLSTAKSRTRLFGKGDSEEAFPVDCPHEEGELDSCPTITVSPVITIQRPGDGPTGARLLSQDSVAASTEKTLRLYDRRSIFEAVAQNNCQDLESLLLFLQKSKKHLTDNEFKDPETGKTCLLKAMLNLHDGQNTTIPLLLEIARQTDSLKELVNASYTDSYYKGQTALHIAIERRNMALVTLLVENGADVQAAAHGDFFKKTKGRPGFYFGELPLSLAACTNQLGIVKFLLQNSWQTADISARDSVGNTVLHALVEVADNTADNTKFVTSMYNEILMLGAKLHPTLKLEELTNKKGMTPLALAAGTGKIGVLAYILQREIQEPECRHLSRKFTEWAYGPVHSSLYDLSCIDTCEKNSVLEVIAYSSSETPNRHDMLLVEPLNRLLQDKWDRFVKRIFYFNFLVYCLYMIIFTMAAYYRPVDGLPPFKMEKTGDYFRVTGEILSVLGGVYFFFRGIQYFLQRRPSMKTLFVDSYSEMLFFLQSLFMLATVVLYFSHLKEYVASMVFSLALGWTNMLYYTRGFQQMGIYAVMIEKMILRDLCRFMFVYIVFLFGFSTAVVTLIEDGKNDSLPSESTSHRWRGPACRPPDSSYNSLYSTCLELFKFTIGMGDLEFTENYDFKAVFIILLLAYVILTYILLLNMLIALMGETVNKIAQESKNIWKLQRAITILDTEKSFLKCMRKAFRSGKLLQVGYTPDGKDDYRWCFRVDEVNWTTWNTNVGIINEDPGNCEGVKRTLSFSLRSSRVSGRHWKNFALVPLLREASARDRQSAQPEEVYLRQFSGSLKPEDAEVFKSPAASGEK
Description: [Measurement of Capsalcin-Induced Ca^2+ Influx in the Human VR1-Transfected CHO Cell Line] (Assay 1)
(1) Establishment of the Human VR1-CHOluc9aeq Cell Line
Human vanilloid receptor (hVR1) cDNA was cloned from libraries of axotomized dorsal root ganglia (WO 00/29577). The cloned hVR1 cDNA was constructed with pcDNA3 vector and transfected into a CHOluc9aeq cell line. The cell line contains aequorin and CRE-luciferase reporter genes as read-out signals. The transfectants were cloned by limiting dilution in selection medium (DMEM/F12 medium (Gibco BRL) supplemented with 10% FCS, 1.4 mM Sodium pyruvate, 20 mM HEPES, 0.15% Sodium bicarbonate, 100 U/ml penicillin, 100 μg/ml streptomycin, 2 mM glutamine, non-essential amino acids and 2 mg/ml G418). Ca^2+ influx was examined in the capsaicin-stimulated clones. A high responder clone was selected and used for further experiments in the project. The human VR1-CHOluc9aeq cells were maintained in the selection medium and passaged every 3-4 days at 1-2.5×10^5 cells/flask ([…]).
(2) Measurement of Ca^2+ Influx Using FDSS-3000
Human VR1-CHOluc9aeq cells were suspended in a culture medium which is the same as the selection medium except for G418 and seeded at a density of 1,000 cells per well into 384-well plates (black walled clear-base/Nalgei Nunc International). Following the culture for 48 hrs the medium was changed to 2 μM Fluo-3 AM (Molecular Probes) and 0.02% Puronic F-127 in assay buffer (Hank's balanced salt solution (HBSS), 17 mM HEPES (pH7.4), 1 mM Probenecid, 0.1% BSA) and the cells were incubated for 60 min at 25° C. After washing twice with assay buffer the cells were incubated with a test compound or vehicle for 20 min at 25° C. Mobilization of cytoplasmic Ca^2+ was measured by FDSS-3000 (λex=488 nm, λem=546 nm/Hamamatsu Photonics) for 60 sec after the stimulation with 10 nM capsaicin. Integral R was calculated and compared with controls.
Results in capsaicin-induced Ca^2+ influx assay in the human VR1-transfected CHO cell line (Assay 1) are shown in Examples and tables of the Examples below. For practical reasons, the compounds are grouped in four classes based on activity as follows: IC50=A(< or =)0.1 μM<B(< or =)0.5 μM<C(< or =)1 μM<D

| Compound | melting point [°C] | IC50 (human VR1) [nM] |
| --- | --- | --- |
| CCN(CCNC(=O)Nc1cccc2c1C[C@H](O)CC2)c1cccc(C)c1 [Example 1-11, N-{2-[Ethyl(m-tolyl)amino]ethyl}-N′-[(7R)-7-hydroxy-5,6,7,8-tetrahydro-1-naphthalenyl]urea] | 143 to 144 | < 100 |
| Cc1cccc(N(C)CCNC(=O)Nc2cccc3c2CC(O)CC3)c1 (centres unmarked) [Example 1-10, N-(7-Hydroxy-5,6,7,8-tetrahydronaphthalen-1-yl)-N′-{2-[methyl(m-tolyl)amino]-ethyl}urea] | 160 to 162 | < 100 |
| O=C(NCCOc1ccc(F)cc1)Nc1cccc2c1C[C@@H](O)CC2 [Example 1-8, N-[2-(4-Fluorophenoxy)ethyl]-N′-[(7S)-7-hydroxy-5,6,7,8-tetrahydronaphthalen-1-yl]urea] | 112 to 113 | < 100 |
| COc1ccccc1OCCNC(=O)Nc1cccc2c1CC(O)CC2 (centres unmarked) [Example 1-6, N-(7-Hydroxy-5,6,7,8-tetrahydronaphthalen-1-yl)-N′-[2-(2-methoxyphenoxy)ethyl]urea] | 182 to 184 | > 1000 |
| O=C(NCCOc1cc(C(F)(F)F)cc(C(F)(F)F)c1)Nc1cccc2c1CC(O)CC2 (centres unmarked) [Example 1-4, N-{2-[3,5-Bis(trifluoromethyl)phenoxy]ethyl}-N′-(7-hydroxy-5,6,7,8-tetrahydronaphthalen-1-yl)urea] | 144 to 149 | < 100 |
| CCN(CCNC(=O)Nc1cccc2c1CC(O)CC2)c1cccc(C)c1 (centres unmarked) [Example 1-9, N-{2-[Ethyl(m-tolyl)amino]ethyl]-N′-(7-hydroxy-5,6,7,8-tetrahydro-1-naphthalenyl)urea] | 149 to 150 | < 100 |
| CCN(CCNC(=O)Nc1cccc2c1C[C@@H](O)CC2)c1cccc(C)c1 [Example 1-12, N-{2-[Ethyl(m-tolyl)amino]ethyl}-N′-[(7S)-7-hydroxy-5,6,7,8-tetrahydro-1-naphthalenyl]urea] | 136 to 137 | < 100 |
| O=C(NCCOc1ccc(F)cc1)Nc1cccc2c1CC(O)CC2 (centres unmarked) [Example 1-1, N-[2-(4-Fluorophenoxy)ethyl]-N′-(7-hydroxy-5,6,7,8-tetrahydronaphthalen-1-yl)urea] | 167 to 169 | < 100 |
| CCOC(=O)c1c(F)cccc1OCCNC(=O)Nc1cccc2c1CC(O)CC2 (centres unmarked) [Example 1-3, Ethyl 2-Fluoro-6-{2-[3-(7-hydroxy-5,6,7,8-tetrahydronaphthalen-1-yl)-ureido]-ethoxy}benzoate] | 165 to 166 | < 100 |
| O=C(NCCOc1ccccc1F)Nc1cccc2c1CC(O)CC2 (centres unmarked) [Example 1-2, N-[2-(2-Fluorophenoxy)ethyl]-N′-(7-hydroxy-5,6,7,8-tetrahydro-1-naphthalenyl)-urea] | 131 to 136 | < 100 |
| O=C(NCCOc1ccccc1N1CCCCC1)Nc1cccc2c1CC(O)CC2 (centres unmarked) [Example 1-5, N-(7-Hydroxy-5,6,7,8-tetrahydronaphthalen-1-yl)-N′-[2-(2-piperidin-1-yl-phenoxy)ethyl]urea] | 128 to 136 | < 100 |
| CN(CCCNC(=O)Nc1cccc2c1CC(O)CC2)c1ccccc1 (centres unmarked) [Example 1-13, N-(7-Hydroxy-5,6,7,8-tetrahydronaphthalen-1-yl)-N′-[3-(methyl-phenyl-amino)propyl]urea] | 125 to 126 | < 100 |
| O=C(NCCOc1ccc(F)cc1)Nc1cccc2c1C[C@H](O)CC2 [Example 1-7, N-[2-(4-Fluorophenoxy)ethyl]-N′-[(7R)-7-hydroxy-5,6,7,8-tetrahydronaphthalen-1-yl]urea] | 111 to 113 | < 100 |
